Reference: patent US9073874B2, “Cyclic N,N′-diarylthioureas and N,N′-diarylureas-androgen receptor antagonists, anticancer agent, method for preparation and use thereof” (priority 2010, dated 2015)

Key:
AMPA = experiment: competitive radioligand binding assay, AMPA (agonist radioligand); conditions: 10 μM
NOP (ORL1) (h) = NOP (ORL1) (h) (Homo sapiens, UniProt P41146); experiment: competitive radioligand binding assay, NOP (ORL1) (h) (agonist radioligand)
5-HT (non-selective) = experiment: competitive radioligand binding assay, 5-HT (non-selective) (agonist radioligand); conditions: 10 μM
NK2 (h) = NK2 (h) (Homo sapiens, UniProt P21452); experiment: competitive radioligand binding assay, NK2 (h) (agonist radioligand)
Sequence of NK2 (h) (P21452 whole entry): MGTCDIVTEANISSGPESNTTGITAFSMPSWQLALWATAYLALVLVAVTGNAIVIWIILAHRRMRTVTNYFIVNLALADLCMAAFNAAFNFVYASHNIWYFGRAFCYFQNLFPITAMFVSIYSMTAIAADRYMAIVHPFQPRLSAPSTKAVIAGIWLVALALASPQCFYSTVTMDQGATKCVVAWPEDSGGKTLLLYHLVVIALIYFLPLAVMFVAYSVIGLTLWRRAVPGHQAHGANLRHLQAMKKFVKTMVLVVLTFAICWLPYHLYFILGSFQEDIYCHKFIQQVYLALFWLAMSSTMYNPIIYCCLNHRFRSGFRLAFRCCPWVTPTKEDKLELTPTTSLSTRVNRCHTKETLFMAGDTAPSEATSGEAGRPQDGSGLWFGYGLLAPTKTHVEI

A3 (h) = A3 (h) (Homo sapiens, UniProt P0DMS8); experiment: competitive radioligand binding assay, A3 (h) (agonist radioligand)
Sequence of A3 (h) (P0DMS8 whole entry): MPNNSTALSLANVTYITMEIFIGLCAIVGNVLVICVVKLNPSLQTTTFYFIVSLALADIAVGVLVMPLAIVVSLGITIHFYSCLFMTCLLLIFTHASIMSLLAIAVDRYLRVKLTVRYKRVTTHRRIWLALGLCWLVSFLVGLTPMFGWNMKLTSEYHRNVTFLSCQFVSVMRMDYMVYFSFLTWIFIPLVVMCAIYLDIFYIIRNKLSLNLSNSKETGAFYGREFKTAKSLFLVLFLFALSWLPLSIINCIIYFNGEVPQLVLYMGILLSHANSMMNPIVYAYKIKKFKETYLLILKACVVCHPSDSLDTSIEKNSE

BZD (central) = experiment: competitive radioligand binding assay, BZD (central) (agonist radioligand); conditions: 10 μM
[1] = Distribution in plasma, brain and prostate after single IV administration in rats; assay type: in vivo; conditions: single IV 2 mg/kg
GABA transporter = experiment: competitive radioligand binding assay, GABA transporter (antagonist radioligand); conditions: 10 μM
MT1 (ML1A) (h) = MT1 (ML1A) (h) (Homo sapiens, UniProt P48039); experiment: competitive radioligand binding assay, MT1 (ML1A) (h) (agonist radioligand)
Sequence of MT1 (ML1A) (h) (P48039 whole entry): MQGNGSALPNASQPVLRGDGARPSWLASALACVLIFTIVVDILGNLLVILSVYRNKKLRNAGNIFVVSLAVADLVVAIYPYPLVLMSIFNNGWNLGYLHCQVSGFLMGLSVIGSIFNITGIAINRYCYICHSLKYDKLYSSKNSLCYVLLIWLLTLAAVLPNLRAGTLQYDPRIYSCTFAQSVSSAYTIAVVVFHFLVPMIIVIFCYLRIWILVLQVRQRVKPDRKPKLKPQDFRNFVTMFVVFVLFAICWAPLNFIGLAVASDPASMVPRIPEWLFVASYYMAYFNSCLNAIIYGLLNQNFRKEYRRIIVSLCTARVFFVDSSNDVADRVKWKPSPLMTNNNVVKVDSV

α1 (non-selective) = experiment: competitive radioligand binding assay, α1 (non-selective (antagonist radioligand)); conditions: 10 μM
B2 (h) = B2 (h) (Homo sapiens, UniProt P30411); experiment: competitive radioligand binding assay, B2 (h) (agonist radioligand)
Sequence of B2 (h) (P30411 whole entry): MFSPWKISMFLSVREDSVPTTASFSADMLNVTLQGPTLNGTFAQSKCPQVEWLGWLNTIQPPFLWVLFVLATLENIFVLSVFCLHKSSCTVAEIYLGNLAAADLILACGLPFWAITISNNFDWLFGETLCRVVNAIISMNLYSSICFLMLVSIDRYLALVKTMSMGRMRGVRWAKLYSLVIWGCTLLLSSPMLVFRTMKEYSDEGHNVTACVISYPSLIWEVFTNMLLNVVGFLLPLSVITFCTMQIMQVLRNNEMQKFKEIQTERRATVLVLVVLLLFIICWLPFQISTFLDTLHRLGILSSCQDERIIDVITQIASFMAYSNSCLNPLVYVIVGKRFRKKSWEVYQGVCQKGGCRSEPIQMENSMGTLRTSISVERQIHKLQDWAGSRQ

CCK1 (CCKA) (h) = CCK1 (CCKA) (h) (Homo sapiens, UniProt P32238); experiment: competitive radioligand binding assay, CCK1 (CCKA) (h) (agonist radioligand)
Sequence of CCK1 (CCKA) (h) (P32238 whole entry): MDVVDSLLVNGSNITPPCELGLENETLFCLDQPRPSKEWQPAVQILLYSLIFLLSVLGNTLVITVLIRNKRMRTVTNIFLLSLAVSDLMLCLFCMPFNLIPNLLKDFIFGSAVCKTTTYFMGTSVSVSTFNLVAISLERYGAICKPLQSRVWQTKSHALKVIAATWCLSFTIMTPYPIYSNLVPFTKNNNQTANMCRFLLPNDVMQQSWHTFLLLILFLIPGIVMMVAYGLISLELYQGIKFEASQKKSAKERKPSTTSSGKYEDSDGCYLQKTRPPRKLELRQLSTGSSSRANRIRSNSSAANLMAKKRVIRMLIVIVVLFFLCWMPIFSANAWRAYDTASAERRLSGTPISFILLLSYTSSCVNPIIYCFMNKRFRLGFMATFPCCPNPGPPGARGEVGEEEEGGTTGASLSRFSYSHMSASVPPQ

M (non0selective) = experiment: competitive radioligand binding assay, M (non0selective) (antagonist radioligand); conditions: 10 μM
LnCAP cells = experiment: Inhibition of DHT-stimulated proliferation of LnCAP cells; assay type: cell-based, human
Experimental: The expression of PSA was measured in the culture medium 24 hours thereafter (FIG. 1). […] The LnCAP cells were cultured for a further 5 days and the number of viable cells was then calculated.
FIG. 2. Inhibition of DHT-stimulated proliferation of LnCAP cells.

CRF1 (h) = CRF1 (h) (Homo sapiens, UniProt P34998); experiment: competitive radioligand binding assay, CRF1 (h) (agonist radioligand)
Sequence of CRF1 (h) (P34998 24-415): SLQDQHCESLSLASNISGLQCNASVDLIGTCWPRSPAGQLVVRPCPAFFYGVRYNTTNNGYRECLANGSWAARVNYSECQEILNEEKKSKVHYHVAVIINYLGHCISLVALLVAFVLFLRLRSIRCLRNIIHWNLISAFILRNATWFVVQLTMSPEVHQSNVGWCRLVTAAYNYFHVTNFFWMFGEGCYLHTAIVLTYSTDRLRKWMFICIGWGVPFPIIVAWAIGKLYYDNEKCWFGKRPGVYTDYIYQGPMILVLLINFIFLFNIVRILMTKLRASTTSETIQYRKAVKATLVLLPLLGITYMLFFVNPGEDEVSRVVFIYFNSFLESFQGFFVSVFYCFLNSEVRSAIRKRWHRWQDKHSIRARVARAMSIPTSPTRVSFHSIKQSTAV

H2 (h) = H2 (h) (Homo sapiens, UniProt P25021); experiment: competitive radioligand binding assay, H2 (h) (antagonist radioligand)
a2 (non-selective) = experiment: competitive radioligand binding assay, a2 (non-selective) (antagonist radioligand); conditions: 10 μM
[2] = tested on: T1, GABA (non-selective) receptors; assay type: binding
T1 construct: other: 10 μM; GABA (non-selective) (agonist radioligand); activity towards GABA (non-selective) receptors (in words)

A1 (h) = A1 (h) (Homo sapiens, UniProt P30542); experiment: competitive radioligand binding assay, A1 (h) (antagonist radioligand)
kainate = experiment: competitive radioligand binding assay, kainate (agonist radioligand); conditions: 10 μM
β2 (h) = β2 (h) (Homo sapiens, UniProt P07550); experiment: competitive radioligand binding assay, β2 (h) (agonist radioligand)
Sequence of β2 (h) (P07550 whole entry): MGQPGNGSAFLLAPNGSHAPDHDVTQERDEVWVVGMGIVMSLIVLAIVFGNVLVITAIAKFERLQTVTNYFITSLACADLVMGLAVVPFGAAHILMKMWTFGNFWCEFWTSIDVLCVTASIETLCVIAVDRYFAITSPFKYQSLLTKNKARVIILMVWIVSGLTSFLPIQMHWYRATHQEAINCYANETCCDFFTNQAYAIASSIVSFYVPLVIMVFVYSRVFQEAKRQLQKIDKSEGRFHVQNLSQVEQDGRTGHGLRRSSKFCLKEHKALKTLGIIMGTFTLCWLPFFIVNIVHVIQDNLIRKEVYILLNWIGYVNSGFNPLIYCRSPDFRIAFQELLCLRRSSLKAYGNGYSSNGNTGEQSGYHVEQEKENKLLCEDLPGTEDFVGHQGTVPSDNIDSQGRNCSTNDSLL

AT1 (h) = AT1 (h) (Homo sapiens, UniProt P30556); experiment: competitive radioligand binding assay, AT1 (h) (antagonist radioligand)
Sequence of AT1 (h) (P30556 whole entry): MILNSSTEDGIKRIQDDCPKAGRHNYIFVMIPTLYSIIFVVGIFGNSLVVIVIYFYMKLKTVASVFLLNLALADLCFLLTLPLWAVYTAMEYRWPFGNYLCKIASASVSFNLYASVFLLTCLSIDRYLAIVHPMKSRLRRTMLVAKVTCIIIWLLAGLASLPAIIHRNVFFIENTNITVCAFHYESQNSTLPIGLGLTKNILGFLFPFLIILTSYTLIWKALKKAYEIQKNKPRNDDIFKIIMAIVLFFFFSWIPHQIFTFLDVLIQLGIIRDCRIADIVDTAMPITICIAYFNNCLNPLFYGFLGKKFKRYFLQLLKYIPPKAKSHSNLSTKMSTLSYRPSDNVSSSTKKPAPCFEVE

PPARγ (h) = PPARγ (h) (Homo sapiens, UniProt P37231); experiment: competitive radioligand binding assay, PPARγ (h) (agonist radioligand)
KATP channel = experiment: competitive radioligand binding assay, KATP channel (antagonist radioligand); conditions: 10 μM
EP2 (h) = EP2 (h) (Homo sapiens, UniProt P43116); experiment: competitive radioligand binding assay, EP2 (h) (agonist radioligand)
Sequence of EP2 (h) (P43116 whole entry): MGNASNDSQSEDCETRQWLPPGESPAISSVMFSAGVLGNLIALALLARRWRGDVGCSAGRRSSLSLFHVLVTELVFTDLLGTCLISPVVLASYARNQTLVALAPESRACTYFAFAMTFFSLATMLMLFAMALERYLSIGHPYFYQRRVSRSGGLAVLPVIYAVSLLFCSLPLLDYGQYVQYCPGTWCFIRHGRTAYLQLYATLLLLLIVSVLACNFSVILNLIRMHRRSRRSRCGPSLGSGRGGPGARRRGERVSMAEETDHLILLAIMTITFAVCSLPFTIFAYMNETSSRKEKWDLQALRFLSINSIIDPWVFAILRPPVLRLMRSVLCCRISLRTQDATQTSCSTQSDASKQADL

dopamine transporter (h) = dopamine transporter (h) (Homo sapiens, UniProt Q01959); experiment: competitive radioligand binding assay, dopamine transporter (h) (antagonist radioligand)
CB1 (h) = CB1 (h) (Homo sapiens, UniProt P21554); experiment: competitive radioligand binding assay, CB1 (h) (agonist radioligand)
Sequence of CB1 (h) (P21554 whole entry): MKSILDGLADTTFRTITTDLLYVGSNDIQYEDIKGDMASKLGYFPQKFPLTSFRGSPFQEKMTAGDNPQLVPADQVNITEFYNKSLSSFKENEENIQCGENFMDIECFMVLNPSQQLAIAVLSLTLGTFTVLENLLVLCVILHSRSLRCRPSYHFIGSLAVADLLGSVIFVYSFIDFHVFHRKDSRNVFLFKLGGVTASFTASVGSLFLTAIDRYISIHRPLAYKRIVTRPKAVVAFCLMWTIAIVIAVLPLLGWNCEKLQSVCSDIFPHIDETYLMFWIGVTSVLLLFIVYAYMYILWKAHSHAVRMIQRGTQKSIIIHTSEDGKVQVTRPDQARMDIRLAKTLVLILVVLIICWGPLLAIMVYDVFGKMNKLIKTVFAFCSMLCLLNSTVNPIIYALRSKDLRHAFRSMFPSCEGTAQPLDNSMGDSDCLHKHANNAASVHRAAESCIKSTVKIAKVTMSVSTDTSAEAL

Y (non-selective) = experiment: competitive radioligand binding assay, Y (non-selective) (agonist radioligand); conditions: 10 μM
[3] = tested on: Ca2+channel (L, verapamil site) (phenylalkylamine); experiment: competitive radioligand binding assay, Ca2+channel (L, verapamil site) (phenylalkylamine) (antagonist radioligand); conditions: 10 μM
GR (h) = GR (h) (Homo sapiens, UniProt P04150); experiment: competitive radioligand binding assay, GR (h) (agonist radioligand)
KV channel = experiment: competitive radioligand binding assay, KV channel (antagonist radioligand); conditions: 10 μM
[4] = molecular target: norepinephrine transporter (h) (Homo sapiens, UniProt P23975); experiment: competitive radioligand binding assay, norepinephrine transporter (h) (antagonist radioligand)
Sequence of norepinephrine transporter (h) (P23975 whole entry): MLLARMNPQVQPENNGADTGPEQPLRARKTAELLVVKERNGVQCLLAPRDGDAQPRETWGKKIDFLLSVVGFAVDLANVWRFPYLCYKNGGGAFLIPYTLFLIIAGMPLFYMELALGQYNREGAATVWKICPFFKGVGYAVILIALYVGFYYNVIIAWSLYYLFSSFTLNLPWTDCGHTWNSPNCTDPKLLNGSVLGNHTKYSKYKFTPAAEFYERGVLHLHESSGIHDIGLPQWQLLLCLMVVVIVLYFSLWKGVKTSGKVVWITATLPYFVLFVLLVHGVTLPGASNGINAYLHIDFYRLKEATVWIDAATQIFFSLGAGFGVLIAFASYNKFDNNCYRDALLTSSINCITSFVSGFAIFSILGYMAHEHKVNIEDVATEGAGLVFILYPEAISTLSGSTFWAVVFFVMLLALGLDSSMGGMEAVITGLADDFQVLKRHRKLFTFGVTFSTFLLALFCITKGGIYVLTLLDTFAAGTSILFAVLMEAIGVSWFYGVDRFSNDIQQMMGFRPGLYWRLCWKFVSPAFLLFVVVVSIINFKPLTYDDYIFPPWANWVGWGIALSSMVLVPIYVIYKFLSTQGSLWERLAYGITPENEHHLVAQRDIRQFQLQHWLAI

[5] = tested on: Ca2+ channel (L, dihydropyridine site); experiment: competitive radioligand binding assay, Ca2+ channel (L, dihydropyridine site) (antagonist radioligand); conditions: 10 μM

Sequence of NOP (ORL1) (h) (P41146 whole entry): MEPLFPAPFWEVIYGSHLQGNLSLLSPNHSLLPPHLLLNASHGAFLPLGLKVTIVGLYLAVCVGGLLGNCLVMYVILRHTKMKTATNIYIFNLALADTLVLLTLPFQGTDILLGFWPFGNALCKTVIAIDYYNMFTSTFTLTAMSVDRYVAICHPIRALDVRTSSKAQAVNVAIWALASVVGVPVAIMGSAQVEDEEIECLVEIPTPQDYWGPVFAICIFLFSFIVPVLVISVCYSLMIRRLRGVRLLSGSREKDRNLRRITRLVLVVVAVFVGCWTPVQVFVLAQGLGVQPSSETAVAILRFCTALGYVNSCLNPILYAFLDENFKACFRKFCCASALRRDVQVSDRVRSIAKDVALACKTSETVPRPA

In the case of CNC(=O)c1ccc(N2C(=S)N(c3ccc(C#N)c(C(F)(F)F)c3)C(=O)[C@]23CCOC3)cc1F [(R)-1, 4-[(R)-3-(4-cyano-3-trifluoromethyl-phenyl)-4-oxo-2-thioxo-7-oxa-1,3-diaza-spiro[4.4]non-1-yl]-2-fluoro-N-methyl-benzamide], the “% Inhibition” value (AMPA) is reported as −23.0%, the inhibition at 10 µM (NOP (ORL1) (h)) is reported as -1.7% and the “% Inhibition” value (5-HT (non-selective)) is reported as −8.2%. For the same molecule, the inhibition at 10 µM (NK2 (h)) was -8.7%, the inhibition at 10 µM (A3 (h)) was -4.9% and the “% Inhibition” value (BZD (central)) was −16.6%. The concentration at 30 min ([1]; rat, plasma, 30 min, Mean ± SD, n = 3) was 0.746 ± 0.104 µg/mL, the concentration at 120 min ([1]; rat, plasma, 120 min, Mean ± SD, n = 3) was 0.522 ± 0.057 µg/mL and the Brain/Plasma ([1]; 30 min) was 0.19 ± 0.02. The Prostate/Plasma ([1]; 30 min) was 1.55 ± 0.08, the Brain ([1]; 30 min, Mean ± SD, n = 3) was 145 ± 22 ng/g and the Plasma ([1]; 30 min, Mean ± SD, n = 3) was 746 ± 104 ng/mL. The Prostate ([1]; 30 min, Mean ± SD, n = 3) was 1159 ± 164 ng/g, the Brain/Plasma ([1]; 120 min) was 0.17 ± 0.35 and the Prostate/Plasma ([1]; 120 min) was 1.20 ± 0.36. For the same molecule, the Brain ([1]; 120 min, Mean ± SD, n = 3) was 89 ± 10 ng/g, the Plasma ([1]; 120 min, Mean ± SD, n = 3) was 522 ± 57 ng/mL and the Prostate ([1]; 120 min, Mean ± SD, n = 3) was 625 ± 108 ng/g. For the same molecule, the “% Inhibition” value (GABA transporter) was 9.7%, the inhibition at 10 µM (MT1 (ML1A) (h)) was -6.2% and the “% Inhibition” value (α1 (non-selective)) was 0.7%. For the same molecule, the inhibition at 10 µM (B2 (h)) was -5.2%, the inhibition at 10 µM (CCK1 (CCKA) (h)) was 10.6% and the “% Inhibition” value (M (non0selective)) was −8.9%. For the same molecule, the IC50 (LnCAP cells; Homo sapiens, LNCaP, 120 h, read-out: IC50, inhibition of DHT-induced cell proliferation) was 0.03 µM, the “fold more efficient than III in inhibiting DHT-induced cell proliferation” value (LnCAP cells; LnCAP cells, versus III) was “around 8 fold” and the “fold more efficient than Ia in inhibiting DHT-induced cell proliferation” value (LnCAP cells; LnCAP cells, versus Ia) was “around 6 fold”. For the same molecule, the inhibition at 10 µM (CRF1 (h)) was -0.1%, the inhibition at 10 µM (H2 (h)) was -2.6% and the “% Inhibition” value (a2 (non-selective)) was −3.7%. The “% Inhibition” value ([2]; 10 μM, GABA (non-selective) (agonist radioligand)) was 7.1%, the “activity towards GABA (non-selective) receptors (in words)” value ([2]; Table 1, Target 24) was “practically inactive” and the inhibition at 10 µM (A1 (h)) was -11.8%. For the same molecule, the “% Inhibition” value (kainate) was 13.1%, the inhibition at 10 µM (β2 (h)) was -8% and the inhibition at 10 µM (AT1 (h)) was 0.5%. For the same molecule, the inhibition at 10 µM (PPARγ (h)) was -19.2%, the “% Inhibition” value (KATP channel) was −0.8% and the inhibition at 10 µM (EP2 (h)) was 0%. The inhibition at 10 µM (dopamine transporter (h)) was -0.3%, the inhibition at 10 µM (CB1 (h)) was -4.5% and the “% Inhibition” value (Y (non-selective)) was −16.4%. The “% Inhibition” value [3] was 4.0%, the inhibition at 10 µM (GR (h)) was 29.4% and the “% Inhibition” value (KV channel) was −10.1%. For the same molecule, the inhibition at 10 µM [4] was -1.1% and the “% Inhibition” value [5] was −2.5%.
